From patent US20260199483A1 (Bright Angel Therapeutics Inc., priority 2022, published 2026) come the findings set out here.

pIC50: −log10 of the molar value. Converted amounts (≈) assume the structure as drawn.

In data set [1] the target is T1, purified recombinant Yck2 (Candida albicans, UniProt A0A1D8PKB4).
T1 construct: Yck2 residues 37-345 were PCR amplified from C. albicans genomic DNA; His6 (N); TEV protease site (N); made in house; host or cells: E. coli BL21(DE3)-Gold
Description: HotSpot kinase assay. Type of data set: biochemical, C. albicans. Here is the method:
IC50s were determined using the in vitro HotSpot kinase assay (purified enzymes, ^33P-ATP, an appropriate substrate and 1 μM ATP). For enzyme inhibition assays, compounds were tested in range of ten concentrations from 10 uM to 0.0005 uM using purified recombinant Yck2. Reaction conditions were 1 uM ATP, one hour incubation with inhibitor, and kinase activity detected using 33-ATP phosphorylation of an appropriately selected peptide substrate.
Yck2 residues 37-345 were PCR amplified from C. albicans genomic DNA and subcloned into the vector pMCSG53, which codes for a N-terminal His6 tag, TEV protease site, followed by the Yck2 protein. E. coli BL21(DE3)-Gold competent cells were transformed with this plasmid and the Yck2 protein was purified using methodology previously described (Stogios et al., ACS Chem. Biol. 13, 1322-1332 (2018)).

Data set [2] can be described thus: Mammalian cell toxicity (Cell Titer-Glo). Format: cell-based. Conditions: human; HepG2 cells, 48 h incubation, Cell Titer-Glo luminescence. The protocol:
HepG2 cells were seeded overnight at 500 cells/well in 384-well plate, then incubated with compounds (10-point concentration titration) for 48 h. Cell Titer-Glo® reagent ([…]) was added to each well and after 10-minute incubation at room temperature the luminescent signal was measured using an Envision plate reader (Perkin Elmer).
(ATP-based viability assays read luminescence as a measure of living cells.)

The test system of another data set is CaCi2. Description: Antifungal sensitivity testing (broth microdilution MIC). The note with it: CaCi2, 96-well broth microdilution, compounds in DMSO. Format: cell-based. Here is the method: Minimum inhibitory concentrations (MICs) were determined in flat bottom, 96-well plate format using a modified broth microdilution protocol as previously described (Singh et al., PLoS Pathog. 5, e1000532 (2009); LaFayette et al., PLoS Pathog. 6, 79-80 (2010)). Compounds were formulated in dimethyl sulfoxide (DMSO, Sigma-Aldrich Co.). Each compound was tested in duplicate in at least two independent experiments.
(In general: In broth dilution the organism is exposed to a series of concentrations in liquid medium.)

T1 sequence (A0A1D8PKB4 entry or part of it): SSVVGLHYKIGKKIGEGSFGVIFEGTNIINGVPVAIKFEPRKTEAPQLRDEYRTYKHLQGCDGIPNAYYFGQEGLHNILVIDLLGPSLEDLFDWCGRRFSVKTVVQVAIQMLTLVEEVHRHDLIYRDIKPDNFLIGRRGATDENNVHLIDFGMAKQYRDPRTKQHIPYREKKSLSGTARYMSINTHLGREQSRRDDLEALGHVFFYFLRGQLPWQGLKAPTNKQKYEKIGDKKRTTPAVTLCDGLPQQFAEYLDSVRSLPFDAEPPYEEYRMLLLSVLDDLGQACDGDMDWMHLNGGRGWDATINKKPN

As usually defined, the pIC50 is the negative decadic logarithm of the IC50, by convention in mol/L. One may read the IC50 as the concentration needed to halve the response being measured. Read a high IC50 as a need for much substance. Consider `Cn1cc(-c2ccnc3c2C(=O)N(C2CCN(CC(O)(Cn4cncn4)c4ccc(F)cc4F)CC2)C3)c(-c2ccc(F)cc2)n1` (stereo not drawn) [Compound I-242, 6-(1-(2-(2,4-difluorophenyl)-2-hydroxy-3-(1H-1,2,4-triazol-1-yl)propyl)piperidin-4-yl)-4-(3-(4-fluorophenyl)-1-methyl-1H-pyrazol-4-yl)-6,7-dihydro-5H-pyrrolo[3,4-b]pyridin-5-one], for which, in data set [1], the pIC50 is 7.81. For the same compound, the IC50 at 48 h in data set [2] was greater than 20 µM.

Consider `Nc1nccc(-c2c(-c3ccc(F)cc3)ncn2C2CCN(CCCNCC(O)(Cn3cncn3)c3ccc(F)cc3F)CC2)n1` (stereo not drawn) [Compound I-80, 1-((3-(4-(5-(2-aminopyrimidin-4-yl)-4-(4-fluorophenyl)-1H-imidazol-1-yl)piperidin-1-yl)propyl)amino)-2-(2,4-difluorophenyl)-3-(1H-1,2,4-triazol-1-yl)propan-2-ol], for which the pIC50 in data set [1] is 8.48. Moreover, the concentration for half-maximal inhibition (IC50) at 48 h in data set [2] is greater than 20 µM.

Take `Cn1cc(-c2ccncc2COC(=O)NC2CCN(CC(O)(Cn3cncn3)c3ccc(F)cc3F)CC2)c(-c2ccc(F)cc2)n1` (stereo not drawn) [Compound I-244, (4-(3-(4-fluorophenyl)-1-methyl-1H-pyrazol-4-yl)pyridin-3-yl)methyl (1-(2-(2,4-difluorophenyl)-2-hydroxy-3-(1H-1,2,4-triazol-1-yl)propyl)piperidin-4-yl)carbamate]: inhibition in data set [2] was half-maximal at 18.4 µM (IC50 at 48 h).

One may read the MIC50 as an inhibitory concentration at the 50% level, which refers to growth in some studies and to a panel of isolates in others. For the compound `Cn1cc(-c2ccncc2COC(=O)C2CCN(CC(O)(Cn3cncn3)c3ccc(F)cc3F)CC2)c(-c2ccc(F)cc2)n1` (stereo not drawn) [Compound I-239, (4-(3-(4-fluorophenyl)-1-methyl-1H-pyrazol-4-yl)pyridin-3-yl)methyl 1-(2-(2,4-difluorophenyl)-2-hydroxy-3-(1H-1,2,4-triazol-1-yl)propyl)piperidine-4-carboxylate], the pIC50 in data set [1] is 6.73. For the same compound, the MIC50 with CaCi2 was 0.195 µM (≈ 0.123 µg/mL). This compound also displayed an IC50 at 48 h in data set [2] greater than 20 µM.

For `O=C(NC1CCN(C[C@@](O)(Cn2cncn2)c2ccc(F)cc2F)CC1)c1ccc2c(-c3ccncc3)c(-c3ccc(F)cc3)nn2c1` [Compound I-103, (R)-N-(1-(2-(2,4-difluorophenyl)-2-hydroxy-3-(1H-1,2,4-triazol-1-yl)propyl)piperidin-4-yl)-2-(4-fluorophenyl)-3-(pyridin-4-yl)pyrazolo[1,5-a]pyridine-6-carboxamide], in data set [1], the pIC50 is 7.31. In the data set with CaCi2, this compound had an MIC50 of 0.0488 µM (≈ 0.0319 µg/mL). Half-maximal inhibition in data set [2] (IC50 at 48 h) required 6.38 µM.

In the case of `O=C(NCC(O)(Cn1cncn1)c1ccc(F)cc1F)c1ccc2c(-c3ccncc3)c(-c3ccc(F)cc3)nn2c1` (stereo not drawn) [Compound I-115, N-(2-(2,4-difluorophenyl)-2-hydroxy-3-(1H-1,2,4-triazol-1-yl)propyl)-2-(4-fluorophenyl)-3-(pyridin-4-yl)pyrazolo[1,5-a]pyridine-6-carboxamide], the pIC50 in data set [1] is 8.44. Moreover, the MIC50 against CaCi2 is 1.27 µM (≈ 0.723 µg/mL). The same compound came in with an IC50 at 48 h in data set [2] greater than 20 µM.

In turn, `OC(Cn1cncn1)(c1ccc(F)cc1F)C(F)(F)c1ccc(C#Cc2ccc(CNCc3ccc4c(-c5ccncc5)c(-c5ccc(F)cc5)nn4c3)cc2)cn1` (stereo not drawn) [Compound I-267, 2-(2,4-difluorophenyl)-1,1-difluoro-1-(5-((4-((((2-(4-fluorophenyl)-3-(pyridin-4-yl)pyrazolo[1,5-a]pyridin-6-yl)methyl)amino)methyl)phenyl)ethynyl)pyridin-2-yl)-3-(1H-1,2,4-triazol-1-yl)propan-2-ol] showed an IC50 at 48 h in data set [2] of 8.03 µM.

`O=C(CC(O)(Cn1cncn1)c1ccc(F)cc1F)NCc1ccc2c(-c3ccncc3)c(-c3ccc(F)cc3)nn2c1` (stereo not drawn) [Compound I-255, 3-(2,4-difluorophenyl)-N-((2-(4-fluorophenyl)-3-(pyridin-4-yl)pyrazolo[1,5-a]pyridin-6-yl)methyl)-3-hydroxy-4-(1H-1,2,4-triazol-1-yl)butanamide] gave an MIC50 with CaCi2 of 1.56 µM (≈ 0.91 µg/mL). The IC50 at 48 h in data set [2] was determined as 22.5 µM.

In turn, `OC(Cn1cncn1)(c1ccc(F)cc1F)C(F)(F)c1ccc(C#Cc2ccc(NCc3ccc4c(-c5ccncc5)c(-c5ccc(F)cc5)nn4c3)cc2)cn1` (stereo not drawn) [Compound I-268] yielded an MIC50 with CaCi2 of 1.17 µM (≈ 0.899 µg/mL). The IC50 at 48 h in data set [2] was greater than 50 µM.

In turn, `OC(COc1cccc2c(-c3ccncc3)c(-c3ccc(F)cc3)nn12)(Cn1cncn1)c1ccc(F)cc1F` (stereo not drawn) [Compound I-139, 2-(2,4-difluorophenyl)-1-((2-(4-fluorophenyl)-3-(pyridin-4-yl)pyrazolo[1,5-a]pyridin-7-yl)oxy)-3-(1H-1,2,4-triazol-1-yl)propan-2-ol] displayed an IC50 at 48 h in data set [2] greater than 20 µM.

For `O=C(NC1CCN(C[C@](O)(Cn2cncn2)c2ccc(F)cc2F)CC1)c1ccc2c(-c3ccncc3)c(-c3ccc(F)cc3)nn2c1` [Compound I-102, (S)-N-(1-(2-(2,4-difluorophenyl)-2-hydroxy-3-(1H-1,2,4-triazol-1-yl)propyl)piperidin-4-yl)-2-(4-fluorophenyl)-3-(pyridin-4-yl)pyrazolo[1,5-a]pyridine-6-carboxamide], the pIC50 in data set [1] is 7.33. The same compound gave an MIC50 in the data set with CaCi2 of 3.12 µM (≈ 2.04 µg/mL). In data set [2], the IC50 at 48 h came out at 2.24 µM.

In the data set on CaCi2, `C[C@@H](NCc1ccc2c(-c3ccncc3)c(-c3ccc(F)cc3)nn2c1)[C@](O)(Cn1cncn1)c1ccc(F)cc1F` [Compound I-266, (2R,3R)-2-(2,4-difluorophenyl)-3-(((2-(4-fluorophenyl)-3-(pyridin-4-yl)pyrazolo[1,5-a]pyridin-6-yl)methyl)amino)-1-(1H-1,2,4-triazol-1-yl)butan-2-ol] displayed an MIC50 of 0.195 µM (≈ 0.111 µg/mL). In data set [2], this compound gave an IC50 at 48 h of 19.5 µM.

As for `Fc1ccc(-c2nn3cc(CNC[C@H]4CO[C@@](Cn5cncn5)(c5ccc(F)cc5F)C4)ccc3c2-c2ccncc2)cc1` (stereo in doubt) [Compound I-257, 1-(cis-5-((1H-1,2,4-triazol-1-yl)methyl)-5-(2,4-difluorophenyl)tetrahydrofuran-3-yl)-N-((2-(4-fluorophenyl)-3-(pyridin-4-yl)pyrazolo[1,5-a]pyridin-6-yl)methyl)methanamine], the MIC50 against CaCi2 is 0.295 µM (≈ 0.176 µg/mL). This compound showed an IC50 at 48 h in data set [2] of 5.57 µM.

Consider `CC(C)(C)OC(=O)N1CCc2c(n(CCCN3CCC(n4cnc(-c5ccc(F)cc5)c4-c4ccnc(N)n4)CC3)c3ccc(Cl)cc23)C1` [Compound I-229, tert-butyl 9-(3-(4-(5-(2-aminopyrimidin-4-yl)-4-(4-fluorophenyl)-1H-imidazol-1-yl)piperidin-1-yl)propyl)-6-chloro-1,3,4,9-tetrahydro-2H-pyrido[3,4-b]indole-2-carboxylate], for which the pIC50 in data set [1] is 7.79. Also, the half-inhibitory concentration (IC50) at 48 h in data set [2] came to 5.59 µM.

With `OC(CNCCOc1cccc2c(-c3ccncc3)c(-c3ccc(F)cc3)nn12)(Cn1cncn1)c1ccc(F)cc1F` (stereo not drawn) [Compound I-153, 2-(2,4-difluorophenyl)-1-((2-((2-(4-fluorophenyl)-3-(pyridin-4-yl)pyrazolo[1,5-a]pyridin-7-yl)oxy)ethyl)amino)-3-(1H-1,2,4-triazol-1-yl)propan-2-ol], in data set [1], the pIC50 was 7.31. In the data set with CaCi2, this compound had an MIC50 of 1.56 µM (≈ 0.914 µg/mL). The IC50 at 48 h in data set [2] is greater than 20 µM.

For `O=C(NC1CCN(CC(O)(Cn2cncn2)c2ccc(F)cc2F)CC1)c1cccc2c(-c3ccncc3)c(-c3ccc(F)cc3)nn12` (stereo not drawn) [Compound I-155, N-(1-(2-(2,4-difluorophenyl)-2-hydroxy-3-(1H-1,2,4-triazol-1-yl)propyl)piperidin-4-yl)-2-(4-fluorophenyl)-3-(pyridin-4-yl)pyrazolo[1,5-a]pyridine-7-carboxamide], the MIC50 with CaCi2 was determined as 0.781 µM (≈ 0.51 µg/mL). Besides, in data set [2], the IC50 at 48 h worked out at 10.1 µM.

Turning to `OC(Cn1cncn1)(c1ccc(F)cc1F)C(F)(F)c1ccc(C#Cc2ccc(OCCNCc3ccc4c(-c5ccncc5)c(-c5ccc(F)cc5)nn4c3)cc2)cn1` (stereo not drawn) [Compound I-270], in the data set on CaCi2, the MIC50 came to 0.586 µM (≈ 0.476 µg/mL). Further, in data set [2], half-maximal inhibition (IC50 at 48 h) was put at 1.54 µM.

In data set [2], `Cn1cc(-c2ccnc3c2C(=O)N(CC2CCN(CC(=O)OC(Cn4cncn4)(Cn4cncn4)c4ccc(F)cc4F)CC2)C3)c(-c2ccc(F)cc2)n1` [Compound I-249, 2-(2,4-difluorophenyl)-1,3-di(1H-1,2,4-triazol-1-yl)propan-2-yl 2-(4-((4-(3-(4-fluorophenyl)-1-methyl-1H-pyrazol-4-yl)-5-oxo-5,7-dihydro-6H-pyrrolo[3,4-b]pyridin-6-yl)methyl)piperidin-1-yl)acetate] showed an IC50 at 48 h greater than 50 µM.

For the compound `Cn1cc(-c2ccnc3c2C(=O)N(CCC2CCN(CC(O)(Cn4ccnn4)c4ccc(F)cc4F)CC2)C3)c(-c2ccc(F)cc2)n1` (stereo not drawn) [Compound I-250], in data set [2], the IC50 at 48 h is greater than 50 µM.

In the case of `OC(Cn1cnnn1)(c1ccc(F)cc1F)C(F)(F)c1ccc(-c2ccc(CNCc3ccc4c(-c5ccncc5)c(-c5ccc(F)cc5)nn4c3)cc2)cn1` (stereo not drawn) [Compound I-269, 2-(2,4-difluorophenyl)-1,1-difluoro-1-(5-(4-((((2-(4-fluorophenyl)-3-(pyridin-4-yl)pyrazolo[1,5-a]pyridin-6-yl)methyl)amino)methyl)phenyl)pyridin-2-yl)-3-(1H-tetrazol-1-yl)propan-2-ol], in data set [2], the half-maximal inhibitory concentration (IC50) at 48 h stood at 3.67 µM.
